# ChEMBL document CHEMBL1795335, “Synthesis of novel 1,2,4-oxadiazoles and analogues as potential anticancer agents” (Eur J Med Chem, 2011)
# Assays:
# Format in all cases: functional, cell-based
# [1] = test system: LNCaP; test: Cytotoxicity against human LNCAP cells after 48 hrs by MTT assay
# [2] = test system: MCF7; test: Cytotoxicity against human MCF7 cells after 48 hrs by MTT assay; conditions: MCF7, 48 h
# [3] = test system: PC-3; test: Cytotoxicity against human PC3 cells after 48 hrs by MTT assay; conditions: PC-3, 48 h
# [4] = test system: MDA-MB-231; test: Cytotoxicity against human MDA-MB-231 cells after 48 hrs by MTT assay; conditions: MDA-MB-231, 48 h
# [5] = test system: DU-145; test: Cytotoxicity against human DU145 cells after 48 hrs by MTT assay; conditions: DU-145, 48 h
# [6] = test system: MIA PaCa-2; test: Cytotoxicity against human MIAPaCa2 cells after 48 hrs by MTT assay; conditions: MIA PaCa-2, 48 h
Compound,IC50 [1] [µM],IC50 [2] [µM],IC50 [3] [µM],IC50 [4] [µM],IC50 [5] [µM],IC50 [6] [µM]
CCCCOc1cc(-c2noc(C3CCNCC3)n2)ccc1OC,32.5,15.7,35.8,23.8,17,18.5
CCOc1cc(-c2noc(C3CCNCC3)n2)ccc1OC,154,173,166,184,167,112
COc1ccc(-c2noc(C3CCNCC3)n2)cc1OC,38.8,27,315,122,108,147
COc1ccc(-c2nnc(C3CCNCC3)s2)cc1OC1CCCC1,19.2,17.6,12.9,9.2,19.6,10.2
COc1cc(-c2noc(C3CCN(C(=O)OC(C)(C)C)CC3)n2)ccc1OC1CCCC1,106,38,315,41,98.6,21.5
COc1ccc(-c2noc(C3CCN(C(=O)OC(C)(C)C)CC3)n2)cc1OC1CCCC1,122,60.3,108,38.3,120,23.3
COc1ccc(-c2nc(-c3ccc(OC)c(OC4CCCC4)c3)no2)cc1,843,> 1000,408,77.7,414,420
COc1ccc(-c2noc(C3CCN(C(=O)OC(C)(C)C)CC3)n2)cc1OC,85.6,52.2,108,129,158,32.5
CCOC(=O)N1CCC(c2nc(-c3ccc(OC)c(OC4CCCC4)c3)no2)CC1,58.7,27,80,36.8,29.3,24
COc1ccc(-c2nnc(C3CCNCC3)o2)cc1OC1CCCC1,308,129,> 1000,38.3,146,331
COc1cc(-c2noc(C3CCN(C(=O)OC(C)(C)C)CC3)n2)cc(OC)c1OC,48.2,43.6,56.9,13.6,48.4,106
COc1cc(-c2noc(C3CCNCC3)n2)ccc1OC1CCCC1,42.2,29,11.7,28.5,30,13
CCCCOc1cc(-c2noc(C3CCN(C(=O)OC(C)(C)C)CC3)n2)ccc1OC,91,91,130,88,102,105
COc1cc(-c2noc(-c3cc(OC)c(OC)c(OC)c3)n2)cc(OC)c1OC,407,> 1000,698,261,576,> 1000
COc1ccc(-c2nc(-c3cc(OC)c(OC)c(OC)c3)no2)cc1,327,> 1000,214,768,100,43.5
CCOc1cc(-c2noc(C3CCN(C(=O)OC(C)(C)C)CC3)n2)ccc1OC,96.1,93.8,41,116,156,91.1
COc1ccc(-c2nc(-c3cc(OC)c(OC)c(OC)c3)no2)cc1OC,> 1000,> 1000,> 1000,475,> 1000,> 1000
COc1ccc(-c2noc(C3CCN(S(C)(=O)=O)CC3)n2)cc1OC1CCCC1,149,113,159,109,134,144
COc1ccc(-c2noc(C3CCCCC3)n2)cc1OC1CCCC1,92.6,57.3,80.3,138,108,64.5
COc1ccc(-c2noc(C(Cl)(Cl)Cl)n2)cc1OC1CCCC1,17.8,47.4,15,16.1,9.3,14.5
COc1ccc(-c2nc(-c3ccc(OC)c(OC4CCCC4)c3)no2)cc1OC,816,> 1000,171,236,422,404
COc1ccc(-c2noc(C3CCCC3)n2)cc1OC1CCCC1,138,62.3,194,87.5,106,99.2
COc1cc(-c2noc(C3CCNCC3)n2)cc(OC)c1OC,120,324,176,123,112,80.1
